The assay deals with T1, 5-Lipoxygenase (Homo sapiens, UniProt P09917).
T1 construct: from tissue; host or cells: human heparinized whole blood
T1 sequence (P09917 1-674): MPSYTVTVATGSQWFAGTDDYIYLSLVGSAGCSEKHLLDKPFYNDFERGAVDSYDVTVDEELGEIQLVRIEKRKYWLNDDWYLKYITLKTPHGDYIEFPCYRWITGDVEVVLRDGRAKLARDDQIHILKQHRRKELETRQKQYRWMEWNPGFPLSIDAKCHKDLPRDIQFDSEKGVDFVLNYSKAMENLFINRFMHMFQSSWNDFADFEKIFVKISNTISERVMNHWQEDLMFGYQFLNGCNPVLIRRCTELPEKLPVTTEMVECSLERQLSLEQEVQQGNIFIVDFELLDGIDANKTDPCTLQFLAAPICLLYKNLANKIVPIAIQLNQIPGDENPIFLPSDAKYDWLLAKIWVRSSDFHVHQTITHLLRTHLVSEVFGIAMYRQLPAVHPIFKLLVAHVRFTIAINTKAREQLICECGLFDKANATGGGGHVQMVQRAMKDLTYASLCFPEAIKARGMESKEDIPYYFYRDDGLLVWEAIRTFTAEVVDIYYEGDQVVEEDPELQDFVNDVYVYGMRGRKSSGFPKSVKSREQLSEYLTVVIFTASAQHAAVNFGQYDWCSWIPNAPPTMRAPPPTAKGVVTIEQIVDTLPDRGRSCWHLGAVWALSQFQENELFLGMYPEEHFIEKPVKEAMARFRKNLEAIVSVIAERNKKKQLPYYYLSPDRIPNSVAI
Nature of the assay: Inhibition of calcium ionophore-induced LTB4 biosynthesis in human whole blood (5-lipoxygenase). In kind it is cell-based. The following applies: for IC50: calcium ionophore A23187 8.3 μM, 15 min preincubation, 37° C., read-out: IC50 against 5-lipoxygenase from stimulated LTB4 formation in human whole blood; for inhibition at 0.1 µM: @ 0.10 μM. As for the experimental part: Inhibition of leukotriene biosynthesis was evaluated in an assay, involving calcium ionophore-induced LTB4 biosynthesis expressed human whole blood. Human heparinized whole blood was preincubated with test compounds or vehicle for 15 min at 37° C. followed by calcium ionophore A23187 challenge (final concentration of 8.3 μM) and the reaction terminated after 30 min by adding two volumes of methanol containing prostaglandin B2 as an internal recovery standard. The methanol extract was analyzed for LTB4 using a commercially available radioimmunoassay.

[1] abbreviates: A23187, read-out: Inhibition of stimulated LTB4 formation in human whole blood.

Each structure is given as a SMILES string. Structures can show the parent of a compound that is named as a salt.

As for `COC1(c2cccc(Sc3ccc(N(C)C(=O)N4CCN(C)CC4)cc3)c2)CCOCC1` [Example 31, 4-{3-[4-(((4-methylpiperazinyl)carbonyl)-N-methylamino)phenylthio]phenyl}-4-methoxytetrahydropyran], the half-inhibitory concentration (IC50) was found to be 70 nM.
In the case of `COC1(c2cc(F)cc(OCc3ccc(CN4CCNC4=O)cc3)c2)CCOCC1` [Example 17, 4-{3-[4-(imidazolidin-2-on-1-ylmethyl)benzyloxy]-5-fluorophenyl}-4-methoxytetrahydropyran], the inhibition at 200 µM (@ 200 μM, A23187, read-out: Inhibition of stimulated LTB4 formation in human whole blood) stood at 13%.
For the compound `C=CCN(C)C(=O)N(C)c1ccc(Sc2cccc(C3(OC)CCOCC3)c2)cc1` [Example 35, 4-{3-[4-(((N'-allyl-N'-methylamino)carbonyl)-N-methylamino)phenyl-thio]phenyl}-4-methoxytetrahydropyran], the half-maximal inhibitory concentration (IC50) is 30 nM.
`COC1(c2cccc(Sc3ccc(N(C)C(=O)N(C)C)cc3)c2)CCOCC1` [Example 8, 4-{3-[4-((N',N'-dimethylaminocarbonyl)-N-methylamino)phenylthio]phenyl}-4-methoxytetrahydropyran]: the inhibition at 0.025 µM (@ 0.025 μM, A23187, read-out: Inhibition of stimulated LTB4 formation in human whole blood) was determined as 45%.
With `COC1(c2cccc([S+]([O-])c3ccc(N(C)C(=O)N(C)C)cc3)c2)CCOCC1` (stereo not shown) [Example 9, 4-{3-[4-((N',N'-dimethylaminocarbonyl)-N-methylamino)phenylsulfinyl]phenyl}-4-methoxytetrahydropyran], under setting [1], the inhibition at 0.1 µM stood at 25%.
`CNC(=O)N(C)c1ccc(Sc2cccc(C3(OC)CCOCC3)c2)cc1` [Example 28, 4-{3-[4-((N"-methylaminocarbonyl)-N-methylamino)phenylthio]phenyl}-4-methoxytetrahydropyran]: under “@ 0.78 μM, A23187, read-out: Inhibition of stimulated LTB4 formation in human whole blood”, the inhibition at 0.78 µM was determined as 100%.
With `COC1(c2cc(F)cc(OCc3ccc(N(C)C(=O)N(C)C)cc3)c2)CCOCC1` [Example 1, 4-{3-[4-((N',N'-dimethylaminocarbonyl)-N-methylamino)benzyloxy]-5-fluorophenyl}-4-methoxytetrahydropyran], the IC50 turned out to be 17 nM.
Regarding `COC1(c2cccc(Sc3ccc(N(C)C(=O)N4CCOCC4)cc3)c2)CCOCC1` [Example 29, 4-{3-[4-((4-morpholinocarbonyl)-N-methylamino)phenylthio]phenyl}-4-methoxytetrahydropyran], the inhibition at 0.1 µM under setting [1] came to 94%.
`COC1(c2cc(F)cc(OCc3ccc(CNC(=O)N(C)C)cc3)c2)CCOCC1` [Example 11, 4-{3-[4-((N',N'-dimethylaminocarbonyl)aminomethyl)benzyloxy]-5-fluorophenyl}-4-methoxytetrahydropyran]: the IC50 was found to be 1800 nM.
Regarding `COC1(c2cccc(Sc3ccc(N(C)C(=O)N4CCN(C)CC4)cc3)c2)CCOCC1` [Example 33, 4-{3-[4-(((4-methylpiperazinyl)carbonyl)-N-methylamino)phenylthio]phenyl}-4-methoxytetrahydropyran hydrochloride salt], the IC50 came to 80 nM.

Usually IC50 stands for the concentration that gives 50% inhibition. In general, inhibition refers to the percentage by which the read-out fell short of the control.

For the origin of these results see patent US5432194A, “(4-alkoxypyran-4-yl) substituted arylalkylaryl-, aryalkenylaryl-, and aryalkynylarylurea inhibitors of 5-lipoxygenase” (Abbott Laboratories, priority 1994, dated 1995).
